According to patent US20130178441A1, “Methods for Extending Progression-Free Survival using 10-Propargyl-10-Deazaaminopterin” (ALLOS THERAPEUTICS, INC., priority 2010, published 2013):
Several values for one entry are separate records, joined by “and”; a condition that tells them apart may be missing. Identical values can stand only once. Marks after values point to notes of the source that are not given here.

How the values were obtained:
[1] = test system: relapsed/refractory PTCL; assay: PROPEL analysis by treatment duration (<1, ≧1, ≧2 cycles of pralatrexate): efficacy; type: in vivo, human; details: for Median PFS by Central Review (months): Kaplan-Meier
Protocol: The pivotal PROPEL study of pralatrexate (FOLOTYN®) in patients with relapsed or refractory PTCL reported a rapid response to treatment in a heavily pretreated patient population. The majority of patients (63% of responders) responded by their first assessment at 7 weeks (the end of cycle 1). The present analysis assessed if there were any unique characteristics of patients who were unable to complete the first cycle of therapy and to assess the outcomes of patients who received ≧1 or ≧2 cycles of pralatrexate. Pralatrexate, a folate analog targeting dihydrofolate reductase, was approved in the United States for treatment of relapsed or refractory PTCL based on the PROPEL study. Methods: In PROPEL, patients received 30 mg/m^2 pralatrexate once weekly for 6 weeks in successive 7-week cycles. […] Cycle completion was determined receiving ≧1 dose in the following cycle. Thus, the subgroup of patients who completed ≧1 (n=64) includes those patients who only completed 1 cycle+the 43 who completed ≧2 cycles of treatment. […] However, the patients not completing cycle lwere more likely to have the angioimmunoblastic subtype (20% vs 6%). Patients in each subgroup received a median of 3 prior treatment regimens.

[2] = test system: relapsed/refractory PTCL; assay: PROPEL subset analysis: patients previously treated with ICE-based regimens (N=20) vs other patients (n=89); type: in vivo, human
Text: The prognosis of aggressive PTCL is dismal. Investigators have developed salvage regimens attempting to improve outcomes for patients with relapsed or refractory disease. One such regimen frequently used is ifosfamide, carboplatin, and etoposide (ICE) or ICE-based regimens (eg, and rituximab-ICE [RICE] and dexamethasome-ICE [DICE]). These regimens can have response rates approaching 70% and patients may proceed to a stem cell transplant, yet most patients tend to relapse quickly (Horwitz et al Blood 2005; 106:a2679). Thus, optimal approaches for patients with relapsed or refractory disease are needed, and agents based on a unique mechanism of action warrant study. This analysis was conducted to determine if pralatrexate offered a beneficial treatment option for patients after treatment with an ICE/RICE/DICE regimen. Methods: Pralatrexate was administered via intravenous push over 3 to 5 minutes at 30 mg/m^2/week for six weeks in 7-week cycles with concurrent 1 mg vitamin B12 intramuscular every 8 to 10 weeks and folic acid 1.0 to 1.25 mg by mouth once daily. 109 patients were treated with pralatrexate in the PROPEL study. All patients in the PROPEL study had received at least 1 prior therapy for PTCL. A subset of 20 patients had received ICE, RICE or DICE at some point prior to treatment with pralatrexate. The efficacy in these patients was compared to the remainder of the patient population who had not received ICE/RICE/DICE as a therapy for PTCL prior to pralatrexate (n=89). The patient population that previously received an ICE-based regimen was heavily pretreated with am edian of 3 prior systemic regimens (range, 2-11). The median age was 45 years, a younger patient population compared with the overall PROPEL population (59 years).
ORR, duration of response, and progression-free survival (PFS) by independent central review and investigator assessment, and OS, are presented in Table 6. Details of the patients who responded to pralatrexate according to assessment by independent central review are provided in Table 7.

[3] = Treatment Duration <1 cycle (n=45)
[4] = Treatment Duration ≧1 cycle (n=64)
[5] = Treatment Duration ≧2 cycles (n=43)
[6] = 20 patients with prior ICE/RICE/DICE
[7] = individual responders previously treated with ICE (N=8), central review, some values censored
[8] = of the 8 patients who did not respond to ICE as most recent therapy
[9] = prior ICE-based regimen, N=20, independent central review
[10] = prior ICE-based regimen, N=20, independent central review, Kaplan-Meier
[11] = prior ICE-based regimen, N=20, investigator assessment
[12] = prior ICE-based regimen, N=20, investigator assessment, Kaplan-Meier

In the case of `C#CCC(Cc1cnc2nc(N)nc(N)c2n1)c1ccc(C(=O)N[C@@H](CCC(=O)O)C(=O)O)cc1` (mixture of isomers) [Pralatrexate, (2S)-2-[[4-[(1RS)-1-[(2,4-diaminopteridin-6-yl)methyl]but-3-ynyl]benzoyl]amino]pentanedioic acid], the “Median OS (months)” value [1, 3] is reported as 8.2 months, the “ORR by Central Review (CR + CRu + PR)” value [1, 3] is reported as 7% and the “ORR by Investigator Assessment (CR + CRu + PR)” value (“ORR by Investigator Assessment” for short) [1, 3] is reported as 7%. The “Median PFS by Central Review (months)” value [1, 3] was 1.3 months, the “Median Duration of Response by Central Review (months)” value [1, 4] was 10.1 months and the “Median OS (months)” value [1, 4] was 20.5 months. For the same compound, the “ORR by Central Review (CR + CRu + PR)” value [1, 4] was 45%, the “ORR by Investigator Assessment” value [1, 4] was 63% and the “Median PFS by Central Review (months)” value [1, 4] was 4.9 months. The “Median Duration of Response by Central Review (months)” value [1, 5] was 13.1 months, the “Median OS (months)” value [1, 5] was 22.9 months and the “ORR by Central Review (CR + CRu + PR)” value [1, 5] was 54%. The “ORR by Investigator Assessment” value [1, 5] was 70%, the “Median PFS by Central Review (months)” value [1, 5] was 8.1 months and the “CR/CRu based on investigators assessment” value [2, 6] was 25%. For the same compound, the “Complete responses [CR] by independent central review” value [2, 6] was 15%, the “ORR based on investigators assessment” value [2, 6] was 40% and the “Overall response rate (ORR) by independent central review” value [2, 6] was 40%. For the same compound, the “Median PFS in the 20 patients relative to that of the other patients” value ([2]; central review) was “over 3 times”, the “Duration of Response (months)” value [2, 7] was 17.1^b months and 13.1 months and 10.1 months and 3.4 months and 1.6 months and the “PFS (months)” value [2, 7] was 14.4 months and 17.8 months and 4.8 months and 3.0 months. The “Duration of Response (months)” value ([2]; individual responders previously treated with ICE (N=8), central review, some values censored, listed as pralatrexate) was 1.3 months and 4.9 months, the CR to pralatrexate [2, 8] was 2 patients and the PR to pralatrexate [2, 8] was 1 patients. The “Patients who responded to pralatrexate” value [2, 8] was 3 patients, the “Patients who responded to pralatrexate” value ([2]; of the 15 patients who did not have a response to a prior ICE-based regimen) was 40% and the “Patients who proceeded to a stem cell transplant upon attaining a response to pralatrexate” value ([2]; of the 20 patients with prior ICE/RICE/DICE) was “Two”. For the same compound, the “CR/CRu based on investigators assessment” value ([2]; other 89 patients) was 17%, the “CR/CRu by independent central review” value ([2]; other 89 patients) was 10% and the “Median PFS according to central review” value ([2]; other 89 patients) was 3.3 months. The “Median duration of response by central review” value ([2]; other 89 patients) was 9.4 months, the “Median duration of response per investigator assessment” value ([2]; other 89 patients) was 6.8 months and the “ORR based on investigators assessment” value ([2]; other 89 patients) was 39%. The “ORR by independent central review” value ([2]; other 89 patients (no prior ICE/RICE/DICE)) was 27%, the “OS, Median, months (95% CI)” value ([2]; prior ICE-based regimen, N=20, Kaplan-Meier) was 12.0 (5.2, 23.4) months and the “Duration of response, Range” value [2, 9] was 1.3-22.1 months. For the same compound, the “Tumor response: CR” value [2, 9] was 3 (15) n (%), the “Tumor response: ORR (CR + PR)” value [2, 9] was 8 (40) n (%) and the “Tumor response: PD” value [2, 9] was 4 (20) n (%). For the same compound, the “Tumor response: PR” value [2, 9] was 5 (25) n (%), the “Tumor response: SD” value [2, 9] was 2 (10) n (%) and the “Duration of response, Median, months (95% CI)” value [2, 10] was 13.1 months and 13.1 (3.4, NA) months. For the same compound, the “PFS, Median, months (95% CI)” value [2, 10] was 14.4 months and 14.4 (1.5, NA) months, the “Tumor response: CR” value [2, 11] was 5 (25) n (%) and the “Tumor response: NA (not assessable)” value [2, 11] was 1 (5) n (%). The “Tumor response: ORR (CR + PR)” value [2, 11] was 8 (40) n (%), the “Tumor response: PD” value [2, 11] was 6 (30) n (%) and the “Tumor response: PR” value [2, 11] was 3 (15) n (%). The “Tumor response: SD” value [2, 11] was 5 (25) n (%), the “Duration of response, Median, months (95% CI)” value [2, 12] was 16.2 months and 16.2 (3.4, NA) months and the “PFS, Median, months (95% CI)” value [2, 12] was 4.8 (2.5, 14.4) months. For the same compound, the “OS, Range” value ([2]; prior ICE-based regimen, N=20, survival follow up ended at two years) was 1.1-24.0^d months.
